Experimental data published in US20220226496A1, “LIGAND-DRUG CONJUGATE INCLUDING LINKER HAVING TRIS STRUCTURE” (LEGOCHEM BIOSCIENCES, INC., priority 2019, published 2022).
Non-standard residues stand in square brackets, D forms with d. Residues, ends and D or L forms follow the SMILES beside them. *: point of attachment. Dolaproine = CO[C@@H]([C@@H]1CCCN1)[C@@H](C)C(=O)O; Dil = CC[C@H](C)[C@H](NC)[C@@H](CC(=O)O)OC; X1 = C[C@@H](N*)[C@@H](O)c1ccccc1; NMeV = CN[C@H](C(=O)O)C(C)C

How the values were obtained:
Experiment in all cases: In vitro cytotoxicity evaluation (cell proliferation inhibition, SRB dye)
Format in all cases: cell-based, human
JIMT-1 (HER2 positive) = conditions: JIMT-1 cells, SRB viable cell count; no 144 h footnote (168-hour treatment group)
Procedure: (§1) The cell proliferation inhibitory activity of the drug and ADCs listed in Table 2 below on cancer cell lines was measured. As the cancer cell lines, commercially available human breast cancer cell lines MCF-7 (HER2 negative to normal), SK-BR3 (HER2 positive), and JIMT-1 (HER2 positive) were used. MMAE was used as the drug, and the ADCs in Table 1 were used as the ADC. Each cancer cell line was seeded in a 96-well plate at 2,500 to 5,000 cells per well for 144-hour treatment group and 1,500 to 3,000 cells per well for 168-hour treatment group, cultured for 24 hours, and then treated with the ADCs and drug at concentrations of 0.00015 to 10.0 nM (4-fold serial dilution) or 0.0015 to 10 nM (3-fold serial dilution). After 144/168 hours, the number of viable cells was quantified using SRB (sulforhodamine B) dye.

SK-BR3 (HER2 positive) = conditions: SK-BR3 cells, SRB viable cell count; no 144 h footnote (168-hour treatment group)
Procedure: as §1

[1] = system: MCF-7 (HER2 negative to normal); conditions: MCF7 cells, SRB viable cell count; no 144 h footnote (168-hour treatment group)
Procedure: as §1

`CC[C@H](C)[C@@H]([C@@H](CC(=O)N1CCC[C@H]1[C@H](OC)[C@@H](C)C(=O)N[C@H](C)[C@@H](O)c1ccccc1)OC)N(C)C(=O)[C@@H](NC(=O)[C@@H](NC)C(C)C)C(C)C` [MMAE, monomethyl auristatin E] (H-[NMeV]V[Dil][Dolaproine]-X1) showed a CC50 (JIMT-1 (HER2 positive)) of 0.09 nM, a CC50 (SK-BR3 (HER2 positive)) of 0.12 nM and a CC50 [1] of 0.31 nM.
